# Where “and” joins values, the source holds several entries; their conditions need not be identical. Equal values may be shown once.
# Columns and labels:
# [1] = system: primary tumor, squamous cell carcinoma of the head and neck; assay: Dynamic ACE PET, tumor clearance rate of [11C] (tumor oxidative metabolism, OXm); format: in vivo, human
# Experimental: Twenty nine dynamic ACE PET scans were performed in the nine patients. Five patients were scanned with a dedicated PET device (Siemens ECAT HR^+, Knoxyille, Tenn., USA) and PET images were coregistered to dose-planning CT images for anatomical localization. Four patients were scanned with a hybrid PET-CT device (GE Discovery ST, Milwaukee, Wis., USA). ACE PET was studied in all patients within 7 days before the start of radiotherapy (baseline). Due to logistic problems not all patients could be scanned at all subsequent time points. Five patients were scanned after a mean dose of 15 Gy (dose range 9.6-20Gy), 7 patients after a mean dose of 30 Gy (range 24-37Gy) and 8 patients after a mean dose of 55 Gy (range 42-68Gy).
# (§1) Ten minutes after the heart scan, the head and neck region was imaged immediately after an intravenous bolus injection of 10 MBq/kg body weight ACE. The scan time was 32 minutes with time frames 12×5 seconds (s), 6×10 s, 4×30 s, 4×60 s, 2×120 s and […].
# Primary tumors were clearly visualized in all scans. A time-activity curve (TAC) of the primary tumor was obtained from a region of interest (ROI) delineating the highest uptake in all ACE scans. TACs were analyzed by fitting an exponential curve to the data collected between 4 and 32 min Tumor oxidative metabolism was derived from the below equation.
# where Y is the tumor radioactivity (Bq/cc), A is a constant, t is time (min), and OXm is the clearance rate of [^11C] in min^−1. The average R^2 of the fit was 0.93.
# [2] = system: primary tumor, squamous cell carcinoma of the head and neck; assay: Dynamic ACE PET, tumor perfusion (absolute extraction rate and relative perfusion index rF); format: in vivo, human
# Experimental: In a subset of ACE scan sessions (n=23) an image-derived arterial input function for absolute quantification of tumor perfusion was acquired by dynamic imaging of the heart immediately after injection of a 0.5 MBq/kg body weight ACE bolus.
# as §1
# The arterial blood input function was derived by placing a small ROI in the left ventricular cavity of the heart scan to obtain a TAC of the first pass of the bolus. Arterial blood activities were integrated by the area-under-the-curve of the first bolus passage through the chamber and normalized to the injected dose of the subsequent tumor scan.
# The peak activity of the primary tumor deposited at the end of the first bolus pass was assessed. The absolute extraction rate (in mL/min/mL tissue) was calculated by dividing the first-pass peak tumor activity by the arterial blood integral, assuming that systemic circulation was unaltered between the heart and tumor scan. As the arterial input was not obtained in all sessions, a relative perfusion index (rF) was quantified by the ratio of initial peak retention in the tumor to that of the cerebellum. […] Absolute quantification of tumor perfusion in 23 scans yielded a mean of 0.47±0.01 mL/min/mL The mean of simultaneous rF measurements was 5.87±0.39 and the two methods were linearly correlated (r=0.57, p=0.005).
# [3] = resting normal volunteers, myocardial O2 consumption 3-4 micromole/min/gram; cited from earlier work
# [4] = system: primary tumor, squamous cell carcinoma of the head and neck; assay: FDG-PET tumor glucose uptake (Tglu); format: in vivo, human
# Experimental: FDG-PET was performed at baseline using a standard clinical whole-body protocol, in which the head and neck area was scanned one hour after intravenous injection of 5 MBq/kg body weight FDG. Baseline ACE and FDG scans were performed on the same or adjacent days.
# Whole-body scanning was performed one hour after intravenous injection of 5 MBq/kg body weight FDG. Six patients were examined by PET/CT and four patients were studied by PET alone. The patients were instructed to remain recumbent and avoid voicing and other uses of neck muscles during the uptake period.
# Tumor glucose uptake (Tglu) was measured from the FDG data as standard uptake values (SUV), determined by the radioactivity concentration of the tumor ROI, divided by injected activity per gram body weight.
smiles,measurement,setting,value
"C[11C](=O)O [ACE, 1-[^11C]-Acetate]","OXm, Mean ± SE","[1]; CR group, 15 Gy, N=4",0.0142 min⁻¹
same,"OXm, Mean ± SE","[1]; CR group, 30 Gy, N=4",0.0144 min⁻¹
same,"OXm, Mean ± SE","[1]; CR group, 55 Gy, N=5",0.0140 min⁻¹
same,"OXm, Mean ± SE","[1]; CR group, Baseline, N=6",0.0122 min⁻¹
same,"OXm, Mean ± SE","[1]; PR group, 30 Gy, N=3",0.0126 min⁻¹
same,"OXm, Mean ± SE","[1]; PR group, 55 Gy, N=3",0.0110 min⁻¹
same,"OXm, Mean ± SE","[1]; PR group, Baseline, N=3",0.0065 min⁻¹
same,mean of simultaneous rF measurements,[2]; 23 scans with absolute quantification,5.87±0.39
same,"absolute quantification of tumor perfusion (absolute ACE extraction rate), mean","[2]; 23 scans, arterial input from left ventricular blood pool imaging",0.47 mL/min/mL and 0.47±0.01 mL/min/mL
same,"rF, Mean ± SE","[2]; CR group, 15 Gy",7.87
same,"rF, Mean ± SE","[2]; CR group, 30 Gy",7.29
same,"rF, Mean ± SE","[2]; CR group, 55 Gy",5.00
same,"rF, Mean ± SE","[2]; CR group, Baseline",5.68
same,"rF, Mean ± SE","[2]; PR group, 30 Gy",6.61
same,"rF, Mean ± SE","[2]; PR group, 55 Gy",4.51
same,"rF, Mean ± SE","[2]; PR group, Baseline",6.42
same,extraction rate in cerebellum (reference region),[2]; all patients,0.08±0.03 mL/min/mL
same,primary tumor rF (relative perfusion),"[2]; individual patients (CR and PR), 15 Gy",6.93 and 5.00 and 8.22 and 7.07 and 9.25
same,primary tumor rF (relative perfusion),"[2]; individual patients (CR and PR), 30 Gy",8.51 and 7.39 and 8.48 and 3.95 and 8.06 and 6.54 and 6.05
same,primary tumor rF (relative perfusion),"[2]; individual patients (CR and PR), 55 Gy",5.78 and 5.00 and 6.34 and 2.20 and 2.81 and 7.76 and 3.64
same,"primary tumor rF (relative perfusion, tumor/cerebellum initial peak retention)","[2]; individual patients (CR and PR), Baseline",4.10 and 7.63 and 6.47 and 5.17 and 6.26 and 4.90 and 3.96 and 5.91 and 8.93
same,OXm values in myocardium,[3],0.05 to 0.07 min⁻¹
"OC[C@H]1OC(O)[C@H]([18F])[C@@H](O)[C@@H]1O (stereo partly drawn) [FDG, ^18F-fluoro-2-deoxy-D-glucose]","Tglu (tumor glucose uptake, standard uptake value)","[4]; individual patients, baseline FDG-PET, one hour after i.v. 5 MBq/kg FDG",4.6 SUV and 13.4 SUV and 8.5 SUV and 6.8 SUV and 4.9 SUV and 16.3 SUV and 13.8 SUV and 3.9 SUV and 26.1 SUV
same,"Tglu, all primary tumors","[4]; nine patients, baseline",10.9±2.4 SUV

# — US20120052010A1, “IMAGING TUMOR PERFUSION, OXIDATIVE […] DYNAMIC ACE PET IN PATIENTS WITH HEAD AND NECK CANCER DURING RADIOTHERAPY” (GE HEALTHCARE LIMITED, priority 2009, published 2012)
